Measurements reported in patent publication US20040067932A1 (priority 2002, published 2004).
In brackets after ≈: the same amount, converted by molar mass. Read-outs that look alike come from different tables or passages of the source.

What was measured:
rA1 adenosine receptor = target: T1, rA1 adenosine receptor (Rattus norvegicus, UniProt P25099); experiment: Binding affinity at rA1 adenosine receptor
T1 sequence (P25099 1-326): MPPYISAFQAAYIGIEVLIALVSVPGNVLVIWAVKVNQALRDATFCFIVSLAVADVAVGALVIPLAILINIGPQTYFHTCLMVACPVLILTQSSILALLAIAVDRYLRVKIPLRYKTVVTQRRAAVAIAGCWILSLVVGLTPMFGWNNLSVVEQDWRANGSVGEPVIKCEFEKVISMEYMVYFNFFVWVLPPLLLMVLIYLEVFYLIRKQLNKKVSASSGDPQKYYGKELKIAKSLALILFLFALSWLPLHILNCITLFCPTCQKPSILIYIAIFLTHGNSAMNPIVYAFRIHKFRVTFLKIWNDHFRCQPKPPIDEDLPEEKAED

rA2A adenosine receptor = rA2A adenosine receptor (Rattus norvegicus, UniProt P30543); experiment: Binding affinity at rA2A adenosine receptor
[1] = tested on: human melanoma A375 cell line; experiment: MTT growth inhibitory assay, A375; format: cell-based
Description: (§3) One of the growth inhibitory assays is the MTT assay. Cells (1000-1500 cells/well) are seeded in a 96-well micro culture plate in a total volume of 100 μl/well. After overnight incubation in a humidified incubator at 37° C. with 5% CO2-95% air, chemotherapeutic drug solutions diluted with culture medium at various concentrations are added in the amount of 100 μl to each well. The plates are placed in a humidified incubator at 37° C. with 5% CO2-95% air for 7-10 days. The plates are then centrifuged briefly and 100 μl of the growth medium is removed. Cell cultures are incubated with 50 μl of MTT [3-(4,5-dimethylthiazol-2-yl)-2,5-diphenyl-tetrazolium bromide] reagent (1 mg/ml in Dulbecco's phosphate-buffered saline) for 4 hr at 37° C. The resultant purple formazan precipitate is solubilized with 200 μl of 0.04 N HCl in isopropanol. Absorbance is measured at a wavelength of 595 nm and at a reference wavelength of 655 nm using a Bio-Rad Model 3550 Microplate Reader. Preferably, all tests are run in duplicate for each dose level.
(§4) The EZED50 computer program estimates the concentration of agent that inhibits cell growth by 50% as compared to the control cells. This is termed the IC50 and is determined by curve fitting test data using the following four logistic equation. [formula]
(§5) Inhibitory assay testing is also used to determine enhanced therapeutic effects from combining A3 receptor antagonists with other tumor inhibiting agents. The inhibitory cell growth assays are run with and without selected concentrations of A3 receptor antagonists. An enhanced therapeutic effect is present when the IC50 of the tumor inhibiting agent is lower with the A3 receptor antagonist.
(§6) Quantitatively, the enhancement factor (EF) is calculated by dividing the IC50 value of the tumor inhibiting agent for a tumor cell line by the IC50 value of the agent with A3 receptor antagonist for the same cell line: [formula]

[2] = tested on: human colon carcinoma HT29 cell line; experiment: MTT growth inhibitory assay, HT29; format: cell-based; settings: for IC50: HT-29
Description: as §3, §4, §5, §6

[3] = tested on: human pancreatic cancer Panc-1; experiment: MTT growth inhibitory assay, Panc-1; format: cell-based
Description: as §3, §4, §5, §6

[4] = tested on: human lung carcinoma SKMES; experiment: MTT growth inhibitory assay, SKMES; format: cell-based
Description: as §3, §4, §5, §6

A375 cells = experiment: Flow cytometry (PI) G2/M accumulation and sub-G1 apoptosis, A375; format: cell-based, human
Description: (§1) A375 and NCTC2544 adherent cells were trypsinized, mixed with floating cells, washed with PBS and permeabilised in 70% (vol/vol) ethanol/PBS solution at 4° C. for at least 24 hours. Jurkat, HeL023 and PBMC cells were centrifuged for 10 minutes at 1000×g. The cell pellet was then resuspended and permeabilised in 70% (vol/vol) ethanol/PBS solution at 4° C. for at least 24 hours. The cells were washed with PBS and the DNA was stained with a PBS solution, containing 20 μg/ml of propidium iodide and 100 μg/ml of RNAse, at room temperature for 30 minutes. Cells were analysed by FACScan (Becton-Dickinson) and the content of DNA was evaluated by the Cell-LISYS program (Becton-Dickinson). Cell distribution among cell cycle phases and apoptotic cells was evaluated as previously described (Secchiero et al., 2001). Briefly, the cell cycle distribution is shown as the percentage of cells containing 2n (G1 phase), 4n (G2 and M phases), 4n>x>2n. DNA amount (S phase) judged by propidium iodide staining. The apoptotic population is the percentage of cells with DNA content lower than 2n.
Cell proliferation and apoptosis are quantified by flow cytometer analysis after propidium-iodide (PI) DNA staining.

[5] = target: T2, P-gp drug efflux activity in HeL023 cells (Homo sapiens, UniProt P08183); experiment: Rhodamine 123 efflux assay, HeL023 cells; format: cell-based; settings: Rh123 efflux, concentrations of Table 11 (MRE3008F20 10 μM)
T2 construct: nearly all (100±1%) the cells expressing high level of functional P-gp; endogenous in cells; host or cells: HeL023 human erythroleukemia cells
Description: 5×10^5 cells from each subline were loaded with 50 ng/ml of rhodamine 123 for 30 minutes at 37° C. in medium. The cells were washed and resuspended in dye-staining agent free medium for 3 hours at 37° C. to allow rhodamine 123 efflux. The cells were then washed twice and the fluorescence of intracellular rhodamine 123 were analysed with Flow cytometer (residual fluorescence FRES). The fluorescence was compared with loaded cells maintained at 4° C. to prevent drug export (maximal fluorescence FMAX). […] Cells from each subline that were not being exposed to rhodamine 123 were used as negative controls.
Rhodamine 123 (Rh123) retention, a P-gp functional assay, was studied in all cell lines. This assay was performed by incubating cells with Rh123 and determining Rh123 accumulation by measuring its fluorescence. The maximum load of Rh123 (FMAX) was quantified at the end of treatment harvesting the cells and storing them at 4° C. to prevent any active Rh123 efflux . The P-gp drug efflux was allowed incubating Rh123-loaded cells in fresh new medium Rh123-free for 3 hours at 37° C. After this incubation, residual fluorescence (FRES) was measured and compared to FMAX.

[6] = target: T3, human A3 adenosine receptor (Homo sapiens, UniProt P0DMS8); settings: read-out: Ki (binding affinity at human A3 adenosine receptor); A375 cells
T3 sequence (P0DMS8 1-318): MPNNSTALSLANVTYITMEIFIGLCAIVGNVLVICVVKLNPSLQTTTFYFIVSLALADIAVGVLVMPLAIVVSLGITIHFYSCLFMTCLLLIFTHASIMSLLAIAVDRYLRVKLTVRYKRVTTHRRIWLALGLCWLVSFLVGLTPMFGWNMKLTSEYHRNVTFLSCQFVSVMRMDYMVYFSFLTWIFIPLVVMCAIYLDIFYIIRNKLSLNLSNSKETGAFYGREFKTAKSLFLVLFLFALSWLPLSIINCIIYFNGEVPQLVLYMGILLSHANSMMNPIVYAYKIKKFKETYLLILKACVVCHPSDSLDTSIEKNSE

A375 melanoma cells = experiment: Colony formation assay of A375 cells; format: cell-based, human; settings: paclitaxel 0.75 ng/ml alone, 7 days
Description: FIG. 2 illustrates colony formation assay of A375 cells. Cells were treated with different drugs and colonies were counted after 7 days. The values represent the mean ±SEM of four independent experiments. D=DMSO (control); T=paclitaxel, 0.75 ng/ml; M=MRE 3008F20, 10 μM; C=CI-IB-MECA, 10 μM; TM=paclitaxel plus MRE 3008F20; TC=paclitaxel plus CI-IB-MECA treated cells. *P<0.01 TM versus T. Analysis was by ANOVA followed by Dunnett's test.;
Control plates received the same volume of DMSO alone. After 7 days of growth at 37° C. in humidified atmosphere containing 5% CO2, the cells were fixed with absolute methanol for 5′ and stained with 1/10 Giemsa/phosphate-buffered saline (PBS) staining solution for 10 minutes. Staining solution was removed and colonies of greater than 30 cells were scored as survivors. For each treatment, six individual wells were scored.
Colony formation assay experiments were performed on A375 melanoma cells treated with increasing concentration of paclitaxel (0.25-75 ng/ml). A3 stimulation is achieved with the selective agonist CI-IB-MECA while A3 blockade is obtained with the selective antagonist MRE 3008F20. […] (FIG. 2)

HeL023 cells = experiment: Flow cytometry (PI) G2/M accumulation and sub-G1 apoptosis, HeL023; format: cell-based, human; settings: DMSO (no antagonist)
Description: as §1
(§2) To verify the role of A3 receptor antagonists on paclitaxel and vindesine mediated alteration of cell proliferation and apoptosis, testing was performed with additional cell lines. […] Experimental conditions are similar to those for the A375 cell testing.

Jurkat cells = experiment: Flow cytometry (PI) G2/M accumulation and sub-G1 apoptosis, Jurkat; format: cell-based, human; settings: DMSO (no antagonist)
Description: as §1, §2

NCTC2544 cells = experiment: Flow cytometry (PI) G2/M accumulation and sub-G1 apoptosis, NCTC2544; format: cell-based, human; settings: NCTC 2544, DMSO (no antagonist)
Description: as §1, §2

PBMC blasts = experiment: Flow cytometry (PI) G2/M accumulation, PBMC blasts; format: cell-based; settings: Homo sapiens, DMSO (no antagonist), read-out: paclitaxel EC50 (G2/M accumulation)
Description: Cells are passaged two or three times weekly at a ratio between 1:5 and 1:10. Lymphocytes were isolated from buffy coats kindly provided by the Blood Bank of the University Hospital of Ferrara. Blood donated by healthy volunteers, after informed consent for research was obtained. Lymphocytes were isolated by density gradient centrifugation (Ficoll/Histopaque 1.077 g/ml). The cells are stimulated with purified phytohemoagglutinin (1 μg/ml) and expanded in RPMI medium added of interleukin 2 (20 Units/ml) and 10% fetal calf serum.
Jurkat, HeL023 and PBMC cells were centrifuged for 10 minutes at 1000×g. The cell pellet was then resuspended and permeabilised in 70% (vol/vol) ethanol/PBS solution at 4° C. for at least 24 hours. The cells were washed with PBS and the DNA was stained with a PBS solution, containing 20 μg/ml of propidium iodide and 100 μg/ml of RNAse, at room temperature for 30 minutes. Cells were analysed by FACScan (Becton-Dickinson) and the content of DNA was evaluated by the Cell-LISYS program (Becton-Dickinson). Cell distribution among cell cycle phases and apoptotic cells was evaluated as previously described (Secchiero et al., 2001). Briefly, the cell cycle distribution is shown as the percentage of cells containing 2n (G1 phase), 4n (G2 and M phases), 4n>x>2n. DNA amount (S phase) judged by propidium iodide staining. […]

[7] = Homo sapiens, A-375, Human Melanoma A375, read-out: IC50 growth inhibition, agent used separately
[8] = Human Colon Carcinoma HT29, read-out: IC50 growth inhibition, agent used separately
[9] = Human Pancreatic Cancer Panc-1, read-out: IC50 growth inhibition, agent used separately
[10] = Panc-1, A3 antagonist 0.5 μg/ml
[11] = Human Lung Carcinoma SKMES, read-out: IC50 growth inhibition, agent used separately
[12] = Homo sapiens, read-out: paclitaxel EC50 (G2/M accumulation)

T2 sequence (P08183 whole entry): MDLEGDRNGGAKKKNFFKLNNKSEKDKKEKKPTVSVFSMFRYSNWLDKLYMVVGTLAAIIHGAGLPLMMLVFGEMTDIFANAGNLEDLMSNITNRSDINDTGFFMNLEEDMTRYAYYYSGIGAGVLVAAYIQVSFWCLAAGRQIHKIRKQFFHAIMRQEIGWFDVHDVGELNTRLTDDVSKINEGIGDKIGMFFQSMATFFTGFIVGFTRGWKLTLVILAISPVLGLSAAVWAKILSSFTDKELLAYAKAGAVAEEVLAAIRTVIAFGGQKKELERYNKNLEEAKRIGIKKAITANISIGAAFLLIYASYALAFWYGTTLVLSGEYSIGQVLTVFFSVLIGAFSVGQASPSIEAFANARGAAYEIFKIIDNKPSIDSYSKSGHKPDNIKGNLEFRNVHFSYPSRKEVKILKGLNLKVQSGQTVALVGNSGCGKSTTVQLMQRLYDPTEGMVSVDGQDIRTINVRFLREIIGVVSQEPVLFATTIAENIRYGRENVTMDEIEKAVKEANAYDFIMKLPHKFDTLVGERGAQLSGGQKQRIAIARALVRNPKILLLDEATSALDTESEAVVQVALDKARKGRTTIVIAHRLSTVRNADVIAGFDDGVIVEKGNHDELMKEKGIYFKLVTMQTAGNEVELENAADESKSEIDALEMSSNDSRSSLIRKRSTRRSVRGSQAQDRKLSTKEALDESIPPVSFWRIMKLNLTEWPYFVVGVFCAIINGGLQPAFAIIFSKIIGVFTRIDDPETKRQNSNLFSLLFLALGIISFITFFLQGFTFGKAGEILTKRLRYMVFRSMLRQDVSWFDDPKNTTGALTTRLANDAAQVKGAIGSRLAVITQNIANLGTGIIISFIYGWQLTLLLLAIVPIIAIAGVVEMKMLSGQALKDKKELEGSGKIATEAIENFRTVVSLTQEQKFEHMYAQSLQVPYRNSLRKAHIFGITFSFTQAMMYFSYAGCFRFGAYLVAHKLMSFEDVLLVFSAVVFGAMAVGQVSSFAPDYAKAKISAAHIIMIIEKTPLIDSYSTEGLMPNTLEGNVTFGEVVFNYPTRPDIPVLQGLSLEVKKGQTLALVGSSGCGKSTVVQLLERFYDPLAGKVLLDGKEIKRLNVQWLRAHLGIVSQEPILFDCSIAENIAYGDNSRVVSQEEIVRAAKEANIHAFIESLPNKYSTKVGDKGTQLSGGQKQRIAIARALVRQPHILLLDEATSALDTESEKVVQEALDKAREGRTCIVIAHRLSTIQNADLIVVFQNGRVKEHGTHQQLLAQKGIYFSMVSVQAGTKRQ
Chain of rA2A adenosine receptor (P30543 whole entry): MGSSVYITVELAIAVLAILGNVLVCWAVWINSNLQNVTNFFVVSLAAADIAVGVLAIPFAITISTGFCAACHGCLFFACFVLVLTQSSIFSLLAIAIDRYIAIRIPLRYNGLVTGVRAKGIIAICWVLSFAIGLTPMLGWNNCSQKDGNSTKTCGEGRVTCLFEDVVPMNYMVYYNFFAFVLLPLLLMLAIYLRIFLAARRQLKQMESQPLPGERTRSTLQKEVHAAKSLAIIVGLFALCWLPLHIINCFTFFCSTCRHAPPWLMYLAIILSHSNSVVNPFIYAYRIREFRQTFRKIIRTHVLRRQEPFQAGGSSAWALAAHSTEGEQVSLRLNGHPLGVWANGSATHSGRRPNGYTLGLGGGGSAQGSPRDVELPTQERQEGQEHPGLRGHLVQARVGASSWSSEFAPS

SMILES: CCN(CC)c1ccc(NC(=O)Nc2nc3nn(C)cc3c3nc(-c4ccco4)nn23)cc1 [IL-10, N-1-(4-diethylamino-phenyl)-N′-5-[8-methyl-2-(2-furyl)-pyrazolo[4 ,3-e]1,2,4-triazolo[1,5-c]pyrimidine]-urea]
- Ki (rA1 adenosine receptor): 580 nM
- Ki (rA2A adenosine receptor): 523 nM
- Enhancement Factor for docetaxel ([1]; A375, A3 antagonist 0.5 μg/ml): 8.4
- Enhancement Factor for paclitaxel ([1]; A375, A3 antagonist 0.5 μg/ml): 3.7
- Enhancement Factor for docetaxel ([1]; A375, A3 antagonist 5 μg/ml): 2.9
- Enhancement Factor for paclitaxel ([1]; A375, A3 antagonist 5 μg/ml, paclitaxel 0.0001-0.05 μg/ml): 8.8
- Enhancement Factor for paclitaxel ([1]; A375, A3 antagonist 5 μg/ml, paclitaxel 0.0002-0.1 μg/ml): 9.2
- IC50 [1, 7]: 11900 ± 400 ng/mL (≈ 26700 nM)
- inhibition at 5 µg/mL ([1]; Homo sapiens, A-375, A375, 5 μg/ml, read-out: growth inhibition in the presence of A3 antagonist alone): 30 to 45%
- Enhancement Factor for docetaxel ([2]; HT29, A3 antagonist 0.5 μg/ml): 5.5
- Enhancement Factor for doxorubicin ([2]; HT29, A3 antagonist 0.5 μg/ml): 1.5
- Enhancement Factor for irinotecan HCl ([2]; HT29, A3 antagonist 0.5 μg/ml): 1.2
- Enhancement Factor for paclitaxel ([2]; HT29, A3 antagonist 0.5 μg/ml): 2.5
- IC50 [2, 8]: 10000 ± 700 ng/mL (≈ 22400 nM)
- IC50 [3, 9]: 3900 ± 3300 ng/mL (≈ 8750 nM)
- Enhancement Factor for docetaxel [3, 10]: 1.4
- Enhancement Factor for paclitaxel [3, 10]: 1.7
- IC50 [4, 11]: 5900 ± 300 ng/mL (≈ 13200 nM)
- Enhancement Factor for docetaxel ([4]; SKMES, A3 antagonist 0.5 μg/ml): 2.8
- Enhancement Factor for irinotecan HCL ([4]; SKMES, A3 antagonist 0.5 μg/ml): 1.7
- Enhancement Factor for paclitaxel ([4]; SKMES, A3 antagonist 0.5 μg/ml): 2.8
- Enhancement Factor for vinblastine ([4]; SKMES, A3 antagonist 0.5 μg/ml): 1.4
- EC50 (A375 cells; Homo sapiens, A-375, A375, vindesine 1 nM, G2/M accumulation dose response curve, read-out: SEC50 (dose inducing 50% of the enhancing activity to vindesine)): 970 ± 100 nM
- inhibition of P-gp activity (in words) [5]: strong inhibitors of P-gp activity

SMILES: CCCCn1cc2c(nc(NC(=O)Nc3ccccc3)n3nc(-c4ccco4)nc23)n1 [MRE 3062F20, 5-N-(4-phenyl-carbamoyl)amino-8-butyl-2 (2furyl)-pyrazolo-[4,3e]-1,2,4triazolo[1,5-c]pyrimidine]
- EC50 (A375 cells; A375, vindesine 1 nM, G2/M accumulation dose response curve, read-out: SEC50 (dose inducing 50% of the enhancing activity to vindesine)): 430 ± 40 nM
- inhibition of P-gp activity (in words) [5]: strong inhibitors of P-gp activity
- Ki [6]: 2.3 ± 0.2 nM

SMILES: CC(=O)O[C@H]1C(=O)[C@@]2(C)[C@H]([C@H](OC(=O)c3ccccc3)[C@]3(O)C[C@H](OC(=O)[C@H](O)[C@@H](NC(=O)c4ccccc4)c4ccccc4)C(C)=C1C3(C)C)[C@]1(OC(C)=O)CO[C@@H]1C[C@@H]2O [paclitaxel]
- IC50 of paclitaxel, A3 antagonist none ([1]; A375, paclitaxel 0.0001-0.05 μg/ml, alone (control of each antagonist series)): 4.2 ng/mL
- IC50 ([1]; Homo sapiens, A-375, A375, paclitaxel 0.0001-0.05 μg/ml, alone (control of each antagonist series), read-out: IC50 of paclitaxel, A3 antagonist none): 4.4 ng/mL (≈ 5.15 nM)
- IC50 ([1]; Homo sapiens, A-375, A375, paclitaxel 0.0002-0.1 μg/ml, alone, read-out: IC50 of paclitaxel, A3 antagonist none): 4.6 ng/mL (≈ 5.39 nM)
- IC50 [1, 7]: 4 ± 0.2 ng/mL (≈ 4.68 nM)
- IC50 [2, 8]: 1.12 ± 0.3 ng/mL (≈ 1.31 nM)
- IC50 ([2]; Homo sapiens, HT29, paclitaxel 0.0001-0.05 μg/ml, alone, read-out: IC50 of paclitaxel, A3 antagonist none): 2.5 ng/mL (≈ 2.93 nM)
- IC50 ([3]; Homo sapiens, Panc-1, paclitaxel 0.0001-0.05 μg/ml, alone, read-out: IC50 of paclitaxel, A3 antagonist none): 2.9 ng/mL (≈ 3.4 nM)
- IC50 [3, 9]: 2.7 ± 0.3 ng/mL (≈ 3.16 nM)
- IC50 ([4]; Homo sapiens, SKMES, paclitaxel 0.0001-0.05 μg/ml, alone, read-out: IC50 of paclitaxel, A3 antagonist none): 3.3 ng/mL (≈ 3.86 nM)
- IC50 [4, 11]: 2.6 ± 0.7 ng/mL (≈ 3.04 nM)
- colony formation, % of the control (A375 melanoma cells): 64%
- paclitaxel ECMAX (sub-G1, maximal apoptosis) (A375 cells; A375, DMSO (no antagonist)): 6.00 ± 0.63 ng/mL
- EC50 (A375 cells; Homo sapiens, A-375, 24 h, read-out: paclitaxel EC50 (G2/M accumulation)): 16.6 ± 2 ng/mL
- paclitaxel ECMAX (sub-G1) (HeL023 cells): 33.42 ± 3.55 ng/mL
- EC50 (HeL023 cells; [12]): 50.6 ± 5.3 ng/mL (≈ 59.3 nM)
- paclitaxel ECMAX (sub-G1) (Jurkat cells): 3.32 ± 0.52 ng/mL
- EC50 (Jurkat cells; [12]): 2.96 ± 0.31 ng/mL (≈ 3.47 nM)
- EC50 (NCTC2544 cells; [12]): 2.69 ± 0.28 ng/mL (≈ 3.15 nM)
- paclitaxel ECMAX (sub-G1) (NCTC2544 cells): 2.69 ± 0.23 ng/mL
- EC50 (PBMC blasts): 5.3 ± 0.6 ng/mL (≈ 6.21 nM)
